This assay addresses T1, human ALK5 (Homo sapiens, UniProt P36897).
T1 sequence (P36897 162-503): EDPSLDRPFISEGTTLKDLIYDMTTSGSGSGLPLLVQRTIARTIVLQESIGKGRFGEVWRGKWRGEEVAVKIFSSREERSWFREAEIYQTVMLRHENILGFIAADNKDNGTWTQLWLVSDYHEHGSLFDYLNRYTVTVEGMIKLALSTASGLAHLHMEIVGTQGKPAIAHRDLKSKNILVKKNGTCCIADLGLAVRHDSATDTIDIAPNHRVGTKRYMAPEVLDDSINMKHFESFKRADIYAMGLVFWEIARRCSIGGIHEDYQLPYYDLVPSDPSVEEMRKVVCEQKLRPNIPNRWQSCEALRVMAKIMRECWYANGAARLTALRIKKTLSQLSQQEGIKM
In words: ALK5 Enzyme Assay 2 (fluorescence polarisation probe displacement). It is filed as binding. Conditions: read-out: EAA2: activity (μM) using Enzyme Assay 2. Details: 6His tagged human ALK5 (residues162-503) was grown and purified from insect cells; 6His; made in house; host or cells: insect cells. In short, it runs like this: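 Recombinant ALK5 (3 μg/mL) incubated with test compound in 50 mM HEPES pH7.4, 10 mM MgCl2, 1 mM DTT, 0.01% CHAPS. Displacement of a fluorescent quinazoline-based ALK5 probe (50 nM final) in presence of 1 μM ATP read by fluorescence polarisation.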
In general terms: In fluorescence polarisation assays a small probe gives low polarisation when free and higher when bound to something large.

As to `Cc1ccc(Oc2ccnc(Nc3cccc(C(=O)N4CC[C@@H](S(C)(=O)=O)C4)c3)c2)c(C)n1` (single isomer, unassigned) [Example 139], the IC50 turned out to be 0.0495 µM. In the case of `C#CC(C)(C)NC(=O)c1cccc(Nc2cc(Oc3cc(C)c(C)nc3-c3ccccn3)ccn2)c1` [Example 103, 3-{[4-(5,6-Dimethyl-2-pyridin-2-ylpyridin-3-yl)oxypyridin-2-yl]-amino}-N-(2-methylbut-3-yn-2-yl)benzamide], the IC50 amounted to 0.0375 µM.

`Cc1ccc(Oc2ccnc(Nc3ccccn3)c2)c(-c2ccccn2)n1` [Example 145, 4-(6-Methyl-2-pyridin-2-ylpyridin-3-yl)oxy-N-pyridin-2-yl-pyridin-2-amine]: the IC50 worked out at 0.00825 µM. As for `COc1cc(Nc2cc(Oc3ccc(C)nc3-c3ccco3)ccn2)cc(OC)c1OC` [Example 165, 4-[2-(Furan-2-yl)-6-methylpyridin-3-yloxy]-N-(3,4,5-trimethoxy-phenyl)pyridin-2-amine], the IC50 turned out to be 0.0126 µM. Then `COc1ccc(Nc2cc(Oc3ccc(C)nc3C)ccn2)cc1` [Example 90, 4-(2,6-Dimethylpyridin-3-yl)oxy-N-(4-methoxyphenyl)pyridin-2-amine], with 0.135 µM; and `Cc1ccc(Oc2ccnc(Nc3ccccc3)c2)c(C(=O)NCc2ccc[nH]2)n1` [Example 94, 3-(2-Anilinopyridin-4-yl)oxy-6-methyl-N-(1H-pyrrol-2-ylmethyl)-pyridine-2-carboxamide], with 0.119 µM.

Take `Cc1ccc(Oc2ccnc(Nc3cccc(CN4CCN(S(=O)(=O)c5cccnc5-n5cncn5)CC4)c3)c2)c(C)n1` [Example 182, 4-(2,6-Dimethylpyridin-3-yl)oxy-N-[3-({4-[2-(1,2,4-triazol-1-yl)-pyridin-3-yl]sulfonylpiperazin-1-yl}methyl)phenyl]pyridin-2-amine]: the IC50 is 0.0183 µM.

With `Cc1ccc(Oc2ccnc(Nc3ccc(S(=O)(=O)N(C)C)cc3)c2)c(C)n1` [Example 117, 4-{[4-(2,6-Dimethylpyridin-3-yl)oxypyridin-2-yl]amino}-N,N-dimethylbenzenesulfonamide], the IC50 turned out to be 0.37 µM.

For `Cc1cc(Oc2ccnc(Nc3ccc(OCCNC(=O)OC(C)(C)C)cc3)c2)c(-c2ccccn2)nc1C` [Example 195, tert-Butyl N-[2-(4-{[4-(5,6-dimethyl-2-pyridin-2-ylpyridin-3-yl)-oxypyridin-2-yl]amino}phenoxy)ethyl]carbamate], the IC50 came out at 0.0121 µM. As for `CC(=O)NS(=O)(=O)c1ccc(Nc2cc(Oc3ccc(C)nc3C)ccn2)cc1` [Example 107, N-{4-[4-(2,6-Dimethylpyridin-3-yloxy)pyridin-2-ylamino]phenyl-sulfonyl}acetamide], the IC50 is 0.592 µM. Turning to `COC(=O)c1cccc(Nc2cc(Oc3cc(C)c(C)nc3-c3ccccn3)ccn2)c1` [Example 202, Methyl 3-{[4-(5,6-dimethyl-2-pyridin-2-ylpyridin-3-yl)oxypyridin-2-yl]amino}benzoate], the IC50 turned out to be 0.0279 µM. Turning to `Cc1ccc(Oc2ccnc(Nc3ccc(CC#N)cc3)c2)c(-c2ccco2)n1` [Example 159, 2-[4-({4-[2-(Furan-2-yl)-6-methylpyridin-3-yl]oxypyridin-2-yl}-amino)phenyl]acetonitrile], the IC50 is 0.00299 µM. To `Cc1ccc(Oc2ccnc(Nc3cccc(CN4CCN(C(=O)NC56CC7CC(CC(C7)C5)C6)CC4)c3)c2)c(C)n1` [Example 177] belongs 0.0469 µM; to `Cc1ccc(Oc2ccnc(Nc3ccc(C(=O)NCCN4CCCC4=O)cc3)c2)c(C)n1` [Example 141, 4-{[4-(2,6-dimethylpyridin-3-yl)oxypyridin-2-yl]amino}-N-[2-(2-oxopyrrolidin-1-yl)ethyl]benzamide], 0.0693 µM; to `CNS(=O)(=O)c1ccc(Nc2cc(Oc3ccc(C)nc3C)ccn2)cc1` [Example 108, 4-{[4-(2,6-Dimethylpyridin-3-yl)oxypyridin-2-yl]amino}-N-methylbenzenesulfonamide], 0.171 µM. For the compound `Cc1ccc(Oc2ccnc(Nc3cccc(CN4CCN(C(=O)CCN)CC4)c3)c2)c(C)n1` [Example 189, 3-Amino-1-{4-[(3-{[4-(2,6-dimethylpyridin-3-yl)oxypyridin-2-yl]-amino}phenyl)methyl]piperazin-1-yl}propan-1-one], the IC50 amounted to 0.0262 µM. As to `CCCc1nc(C)ccc1Oc1ccnc(Nc2cc(OC)c(OC)c(OC)c2)c1` [Example 166, 4-(6-Methyl-2-propylpyridin-3-yloxy)-N-(3,4,5-trimethoxy-phenyl)pyridin-2-amine], the IC50 is 0.597 µM. `Cc1ccc(Oc2ccnc(Nc3ccc(CO)cc3)c2)c(C)n1` [Example 154, (4-{[4-(2,6-Dimethylpyridin-3-yl)oxypyridin-2-yl]amino}phenyl)-methanol]: the IC50 turned out to be 0.0197 µM.

With `Cc1cc(Oc2ccnc(Nc3cccc(OCCN4CCOCC4)c3)c2)c(-c2ccccn2)nc1C` [Example 79, 4-(5,6-Dimethyl-2-pyridin-2-ylpyridin-3-yl)oxy-N-[3-(2-morpholin-4-ylethoxy)phenyl]pyridin-2-amine], the IC50 stood at 0.0396 µM. To `Cc1cc(Oc2ccnc(Nc3ccc(C(=O)NCCN)cc3)c2)c(-c2ccccn2)nc1C` [Example 200, N-(2-Aminoethyl)-4-{[4-(5,6-dimethyl-2-pyridin-2-ylpyridin-3-yl)oxypyridin-2-yl]amino}benzamide] belongs 0.00485 µM; to `Cc1ccc(Oc2ccnc(Nc3cccc(CN4CCNCC4)c3)c2)c(C)n1` [Example 176, 4-(2,6-Dimethylpyridin-3-yl)oxy-N-[3-(Piperazin-1-ylmethyl)-phenyl]pyridin-2-amine], 0.00829 µM. `Cc1cc(Oc2ccnc(Nc3cccc(C(=O)N4CCCC(C)C4)c3)c2)c(-c2ccccn2)nc1C` (stereo not shown) [Example 101, (3-{[4-(5,6-Dimethyl-2-pyridin-2-ylpyridin-3-yl)oxypyridin-2-yl]-amino}phenyl)-(3-methylpiperidin-1-yl)methanone]: the IC50 was 0.0114 µM. With `Cc1ccc(Oc2ccnc(Nc3ccc(CO)cc3)c2)c(-c2ccccn2)n1` [Example 147, (4-{[4-(6-Methyl-2-pyridin-2-ylpyridin-3-yl)oxypyridin-2-yl]-amino}phenyl)methanol], the IC50 was found to be 0.00921 µM.

For `Cc1cc(Oc2ccnc(Nc3cccc(CN4CCN(C)CC4)c3)c2)c(-c2ccccn2)nc1C` [Example 78, 4-(5,6-Dimethyl-2-pyridin-2-ylpyridin-3-yl)oxy-N-{3-[(4-methyl-piperazin-1-yl)methyl]phenyl}pyridin-2-amine], the IC50 was determined as 0.0384 µM.

In the case of `Cc1cc(Oc2ccnc(Nc3cccc(O)c3)c2)c(-c2ccccn2)nc1C` [Example 201, 3-{[4-(5,6-Dimethyl-2-pyridin-2-ylpyridin-3-yl)oxypyridin-2-yl]-amino}phenol], the IC50 is 0.00393 µM. To `Cc1ccc(Oc2ccnc(Nc3ccc(C(=O)NCCN4CCS(=O)(=O)CC4)cc3)c2)c(C)n1` [Example 215, 4-{[4-(2,6-Dimethylpyridin-3-yl)oxypyridin-2-yl]amino}-N-[2-(1,1-dioxo-1,4-thiazinan-4-yl)ethyl]benzamide] belongs 0.0362 µM. Consider `Cc1ccc(Oc2ccnc(Nc3ccccc3)c2)c(C(=O)NCC2CC2)n1` [Example 93, 3-(2-Anilinopyridin-4-yl)oxy-N-(cyclopropylmethyl)-6-methyl-pyridine-2-carboxamide], for which the IC50 was found to be 0.154 µM. To `Cc1ccc(Oc2ccnc(Nc3ccc(CC#N)cc3)c2)c(C)n1` [Example 91, 2-(4-{[4-(2,6-Dimethylpyridin-3-yl)oxypyridin-2-yl]amino}phenyl)-acetonitrile] belongs 0.0286 µM; to `COc1cc(Nc2cc(Oc3ccc(C)nc3-c3cccnc3)ccn2)cc(OC)c1OC` [Example 172, 4-(6-Methyl-2,3′-bipyridin-3-yloxy)-N-(3,4,5-trimethoxyphenyl)-pyridin-2-amine], 0.061 µM. `Cc1ccc(Oc2ccnc(Nc3cccc(CN4CCN(S(C)(=O)=O)CC4)c3)c2)c(C)n1` [Example 175, 4-(2,6-Dimethylpyridin-3-yl)oxy-N-{3-[(4-methylsulfonyl-piperazin-1-yl)methyl]phenyl}pyridin-2-amine]: the IC50 came out at 0.00611 µM. In the case of `COCC(C)NS(=O)(=O)c1ccc(Nc2cc(Oc3ccc(C)nc3C)ccn2)cc1` (stereo not shown) [Example 118, 4-{[4-(2,6-Dimethylpyridin-3-yl)oxypyridin-2-yl]amino}-N-(1-methoxypropan-2-yl)benzenesulfonamide], the IC50 worked out at 0.155 µM. As to `Cc1ccc(Oc2ccnc(Nc3ccc(S(=O)(=O)N(C)CCO)cc3)c2)c(C)n1` [Example 112, 4-{[4-(2,6-Dimethylpyridin-3-yl)oxypyridin-2-yl]amino}-N-(2-hydroxyethyl)-N-methylbenzenesulfonamide], the IC50 was determined as 0.505 µM. To `Cc1ccc(Oc2ccnc(Nc3cccc(CN4CCN(C(=O)CCNC(=O)OC(C)(C)C)CC4)c3)c2)c(C)n1` [Example 208, tert-Butyl N-(3-{4-[(3-{[4-(2,6-dimethylpyridin-3-yl)oxypyridin-2-yl]amino}phenyl)methyl]piperazin-1-yl}-3-oxopropyl)carbamate] belongs 0.0204 µM; to “3-{[4-(2,6-Dimethylpyridin-3-yl)oxypyridin-2-yl]amino}-N-(1-methylpiperidin-4-yl)benzamide [Example 70]”, 0.0323 µM.
